From ChEMBL document CHEMBL1147179, “Synthesis and antimicrobial activity of some novel phenyl and benzimidazole substituted benzyl ethers” (2007)
In brackets after ≈: the same amount, converted by molar mass. Activity calls are given as the source filed them. No cut-off for these calls is given here.

What was measured:
Escherichia coli = assay: Antibacterial activity against Escherichia coli ATCC 25922 at 100 ug/ml by diffusion method; assay type: functional, organism-based
Staphylococcus aureus [1] = assay: Antibacterial activity against Staphylococcus aureus ATCC 25923 by macro-broth dilution assay; assay type: functional
Pichia kudriavzevii = assay: Antifungal activity against Candida krusei ATCC 6258 by macro-broth dilution assay; assay type: functional
Candida albicans = assay: Antifungal activity against Candida albicans ATCC 10231 by macro-broth dilution assay; assay type: functional
Staphylococcus aureus [2] = assay: Antibacterial activity against methicillin-resistant Staphylococcus aureus ATCC 43300 by macro-broth dilution assay; assay type: functional

| Structure (SMILES) | Activity (Escherichia coli) | MIC (Staphylococcus aureus [1]) [µg/mL] | MIC (Pichia kudriavzevii) [µg/mL] | MIC (Candida albicans) [µg/mL] | MIC (Staphylococcus aureus [2]) [µg/mL] |
| --- | --- | --- | --- | --- | --- |
| Clc1ccc(Cl)c(COC(Cn2cnc3ccccc32)c2ccccc2)c1 (stereo unspecified) | inactive | – | – | – | – |
| Clc1ccc(COC(Cn2cnc3ccccc32)c2ccccc2)c(Cl)c1 (stereo unspecified) | inactive | 3.12 (≈ 7.85 µM) | 25 (≈ 62.9 µM) | 25 (≈ 62.9 µM) | 12.5 (≈ 31.5 µM) |
| CC1(C)S[C@@H]2[C@H](NC(=O)[C@H](N)c3ccccc3)C(=O)N2[C@H]1C(=O)O [AMPICILLIN] | inactive | 0.78 (≈ 2.23 µM) | – | – | 25 (≈ 71.5 µM) |
| FC(F)(F)c1ccc(COC(Cn2cnc3ccccc32)c2ccccc2)cc1 (stereo unspecified) | inactive | 6.25 (≈ 15.8 µM) | 12.5 (≈ 31.5 µM) | 25 (≈ 63.1 µM) | 12.5 (≈ 31.5 µM) |
| Clc1ccc(COC(Cn2ccnc2)c2ccc(Cl)cc2Cl)c(Cl)c1 (stereo unspecified) [MICONAZOLE] | inactive | – | 0.78 (≈ 1.87 µM) | 0.19 (≈ 0.457 µM) | – |
| OC(Cn1cncn1)(Cn1cncn1)c1ccc(F)cc1F [FLUCONAZOLE] | inactive | – | 25 (≈ 81.6 µM) | 0.78 (≈ 2.55 µM) | – |
| Clc1ccc(COC(Cn2cnc3ccccc32)c2ccccc2)cc1Cl (stereo unspecified) | inactive | 3.12 (≈ 7.85 µM) | 25 (≈ 62.9 µM) | 12.5 (≈ 31.5 µM) | 25 (≈ 62.9 µM) |
| Clc1ccc(COC(Cn2cnc3ccccc32)c2ccccc2)cc1 (stereo unspecified) | inactive | 3.12 (≈ 8.6 µM) | 25 (≈ 68.9 µM) | 25 (≈ 68.9 µM) | 12.5 (≈ 34.4 µM) |
| O=C(O)c1cn(C2CC2)c2cc(N3CCNCC3)c(F)cc2c1=O | inactive | – | – | – | – |
| Clc1cccc(Cl)c1COC(Cn1cnc2ccccc21)c1ccccc1 (stereo unspecified) | inactive | 3.12 (≈ 7.85 µM) | 12.5 (≈ 31.5 µM) | 12.5 (≈ 31.5 µM) | 6.25 (≈ 15.7 µM) |
| Fc1ccc(COC(Cn2cnc3ccccc32)c2ccccc2)cc1 (stereo unspecified) | inactive | 12.5 (≈ 36.1 µM) | 25 (≈ 72.2 µM) | 25 (≈ 72.2 µM) | 25 (≈ 72.2 µM) |
| c1ccc(COC(Cn2cnc3ccccc32)c2ccccc2)cc1 (stereo unspecified) | inactive | 25 (≈ 76.1 µM) | 25 (≈ 76.1 µM) | 25 (≈ 76.1 µM) | 25 (≈ 76.1 µM) |
| Brc1ccc(COC(Cn2cnc3ccccc32)c2ccccc2)cc1 (stereo unspecified) | inactive | 3.12 (≈ 7.66 µM) | 25 (≈ 61.4 µM) | 25 (≈ 61.4 µM) | 12.5 (≈ 30.7 µM) |
